Measurements: US8815857B2 (Boehringer Ingelheim International GmbH, priority 2011, dated 2014)
Converted amounts (≈) assume the structure as drawn.

Columns and labels:
[1] = target: T1, Recombinant human soluble guanylate cyclase (sGC), alpha 1 / beta 1 subunits, heme-free (Homo sapiens, UniProt Q02108+Q02153); experiment: Molecular assay: cGMP formation by heme-free recombinant sGC (CisBio cGMP detection kit); format: biochemical; conditions: 300 pM heme-free sGC, 37° C., 60 min, cGMP readout; read-out: EC50 nM, Activity of Compounds in Molecular Assay
T1 construct: histidine tag (C); made in house; host or cells: Sf9 insect cells (baculovirus coinfection)
T1 sequence (Q02108 1-690 partner): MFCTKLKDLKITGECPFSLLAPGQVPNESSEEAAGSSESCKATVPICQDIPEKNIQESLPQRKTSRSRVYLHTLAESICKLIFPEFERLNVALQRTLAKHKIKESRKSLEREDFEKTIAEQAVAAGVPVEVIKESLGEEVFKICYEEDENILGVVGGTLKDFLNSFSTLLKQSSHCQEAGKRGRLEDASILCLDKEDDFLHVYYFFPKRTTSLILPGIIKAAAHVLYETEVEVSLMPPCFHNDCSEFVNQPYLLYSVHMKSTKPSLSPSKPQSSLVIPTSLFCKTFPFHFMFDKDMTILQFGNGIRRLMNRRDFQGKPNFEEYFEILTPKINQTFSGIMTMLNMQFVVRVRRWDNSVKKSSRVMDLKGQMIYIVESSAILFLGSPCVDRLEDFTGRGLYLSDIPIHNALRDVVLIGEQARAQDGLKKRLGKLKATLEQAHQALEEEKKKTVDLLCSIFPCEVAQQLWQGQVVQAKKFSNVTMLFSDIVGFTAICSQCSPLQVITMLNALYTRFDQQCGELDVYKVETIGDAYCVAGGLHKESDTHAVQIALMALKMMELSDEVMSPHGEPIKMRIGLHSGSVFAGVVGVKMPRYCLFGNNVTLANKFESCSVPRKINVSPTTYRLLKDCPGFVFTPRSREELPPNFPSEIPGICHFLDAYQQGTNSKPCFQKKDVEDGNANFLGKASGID
T1 sequence (Q02153 1-619): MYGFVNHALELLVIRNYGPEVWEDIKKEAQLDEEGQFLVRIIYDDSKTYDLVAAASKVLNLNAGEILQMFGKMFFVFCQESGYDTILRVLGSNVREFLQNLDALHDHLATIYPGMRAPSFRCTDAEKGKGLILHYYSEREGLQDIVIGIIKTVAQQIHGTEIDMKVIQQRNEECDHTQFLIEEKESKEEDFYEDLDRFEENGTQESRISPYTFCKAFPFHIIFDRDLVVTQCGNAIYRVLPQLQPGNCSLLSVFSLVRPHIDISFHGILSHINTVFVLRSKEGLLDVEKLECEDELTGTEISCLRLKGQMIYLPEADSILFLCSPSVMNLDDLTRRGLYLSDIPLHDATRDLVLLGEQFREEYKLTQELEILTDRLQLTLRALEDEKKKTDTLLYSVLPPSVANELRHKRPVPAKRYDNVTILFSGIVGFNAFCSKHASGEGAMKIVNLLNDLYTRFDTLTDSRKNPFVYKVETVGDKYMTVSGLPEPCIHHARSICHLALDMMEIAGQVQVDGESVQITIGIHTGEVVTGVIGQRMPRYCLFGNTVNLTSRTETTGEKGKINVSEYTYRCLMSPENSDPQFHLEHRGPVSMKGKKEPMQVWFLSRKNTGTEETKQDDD
Procedure, shortened: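 Heme-free His-tagged sGC (Sf9-expressed, Tween 20-treated lysate) at 300 pM incubated with compounds (1% DMSO) for 60 min at 37° C in MOPS pH 6.8 with 50 nM GTP, IBMX, TCEP. cGMP quantified by HTRF against calibration curve; EC50 from combined undiluted/diluted values.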

[2] = target: T2, human soluble guanylate cyclase alpha 1 and beta 1 subunits (sGC) stably expressed in Chinese hamster ovary cells (Homo sapiens, UniProt Q02108+Q02153); experiment: sGC cellular activator assay: cGMP in CHO cells expressing human sGC, preincubated with ODQ; format: cell-based; conditions: 40 microM ODQ preincubation, 30 min at room temperature, presence or absence of 50% human serum not given, read-out: EC50 nM, Activity of Compounds in Cellular Assay
T2 construct: expressed in transfected cells; host or cells: Chinese hamster ovary cells, stably transfected
T2 sequence (Q02108 1-690 partner): T1 sequence (Q02108 1-690 partner)
T2 sequence (Q02153 1-619): T1 sequence (Q02153 1-619)
Procedure, shortened: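 EC50 values derive from HTRF cGMP measurement after test compounds act for thirty minutes at room temperature, with or without 50% human serum. Before dosing, the sGC-transfected CHO cells spend one hour with the inhibitor ODQ (40 microM) in IBMX- and 0.1% BSA-containing buffer.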

[3] = Assessment of solubility: HT solubility in pION buffer, UV spectrophotometry; conditions: kinetic from dmso stock
[4] = pION system solution buffer, pH 4.5, pH 4.5, aqueous buffer, Solubility (pH 4.5), pH 4.5 buffer, 16-19 h incubation, 1.0% DMSO
[5] = pION system solution buffer, pH 7.4, pH 7.4, aqueous buffer, Solubility (pH 7.4), pH 7.4 buffer, 16-19 h incubation, 1.0% DMSO
[6] = pH 6.8, aqueous buffer, Solubility (pH 6.8), pH 6.8

SMILES | EC50 [1] [nM] | EC50 [2] [nM] | solubility [3, 4] [µg/mL] | solubility [3, 5] [µg/mL] | solubility [3, 6] [µg/mL]
Cc1ccc(OCc2ccc(CN3CCS(=O)(=O)CC3)cc2C)c(-c2csc(N3CCC4(C(=O)O)CC4C3)n2)c1 (centres unmarked) [Compound 217] | 49 | 8.7 | 0.95 (≈ 1.63 µM) | 34 (≈ 58.4 µM) | 
Cc1ccc(OCc2ccc(CN3CCC(F)CC3)cc2C)c(-c2csc(N3CCC(C(=O)O)CC3)n2)c1 [Compound 353] | 470 | 140 | > 53 | 38 (≈ 70.7 µM) | 
Cc1cc(C(=O)N2CCCCC2)ccc1COc1ccc(C#N)cc1-c1csc(N2CCC(C(=O)O)CC2)n1 [Compound 274] | 1600 | 600 | 0.95 (≈ 1.74 µM) | > 54 | 
Cc1ccc(OCc2ccc(CN3CCOCC3)cc2C)c(-c2csc(N3C[C@H]4C[C@@H](C3)[C@H]4C(=O)O)n2)c1 [Compound 237] | 240 | 130 | > 53 | > 53 | 
Cc1cc(CN2CCOCC2)ccc1COc1c(C)cccc1-c1csc(N2C[C@H]3CC[C@@H](C2)[C@H]3C(=O)O)n1 [Compound 206] | 170 | 88 | > 58 | > 58 | 
Cc1cc(CN2CCS(=O)(=O)CC2)ccc1COc1ccccc1-c1csc(N2CCC(C(=O)O)CC2)n1 [Compound 272] | 120 | 110 | 14 (≈ 25.2 µM) | > 160 | 
Cc1cc(C(=O)N2CCCCC2)ccc1COc1c(C)cccc1-c1csc(N2C3CCC2CC(C(=O)O)C3)n1 (centres unmarked) [Compound 209] | 270 | 96 | 5.1 (≈ 9.11 µM) | > 55 | 
Cc1cc(CN2CCS(=O)(=O)CC2)ccc1COc1ccc(Cl)cc1-c1csc(N2C3CCC2CC(C(=O)O)C3)n1 (centres unmarked) [Compound 207] | 170 | 93 | 0.95 (≈ 1.54 µM) | 30 (≈ 48.7 µM) | 
Cc1cc(CN2CCS(=O)(=O)CC2)ccc1COc1c(C)cccc1-c1csc(N2C3CCC2CC(C(=O)O)C3)n1 (centres unmarked) [Compound 205] | 80 | 200 | 9.5 (≈ 15.9 µM) | > 59 | 
Cc1ccc(OCc2ccc(CN3CCN(C(=O)C4CC4)CC3)cc2C)c(-c2csc(N3CC(C4(C(=O)O)CC4)C3)n2)c1 [Compound 255] |  | 480 | 6 (≈ 9.99 µM) |  | 0.94 (≈ 1.56 µM)
Cc1ccc(OCc2ccc(CN3CCOCC3)cc2C)c(-c2csc(N3CC(CC(=O)O)C3)n2)c1 [Compound 254] |  | 450 | 40 (≈ 78.8 µM) |  | 51 (≈ 100 µM)
Cc1ccc(OCc2ccc(CN3CCOCC3)cc2C)c(-c2csc(N3CCCC(C)(C(=O)O)CC3)n2)c1 (centres unmarked) [Compound 233] |  | 310 | 47 (≈ 85.5 µM) |  | 0.6 (≈ 1.09 µM)

Results, then the compound that gave them:

EC50 [1] [nM] | EC50 [2] [nM] | solubility [3, 4] [µg/mL] | solubility [3, 5] [µg/mL] | solubility [3, 6] [µg/mL] | SMILES
1800 | 670 | 0.6 (≈ 1 µM) | 4 (≈ 6.67 µM) |  | Cc1cc(CN2CCS(=O)(=O)CC2)ccc1COc1ccc(F)cc1-c1csc(N2CC3CCC(C2)C3C(=O)O)n1 (centres unmarked) [Compound 275]
2900 | 650 | 2.7 (≈ 5.06 µM) | > 53 |  | Cc1ccc(OCc2ccc(C(=O)N3CCCCC3)cc2C)c(-c2csc(N[C@@H]3CC[C@H](C(=O)O)C3)n2)c1 [Compound 239]
45 | 19 | 3.7 (≈ 6.68 µM) | 21 (≈ 37.9 µM) |  | Cc1cc(C(=O)N2CCCCC2)ccc1COc1ccc(Cl)cc1-c1csc(N2CCC(C(=O)O)CC2)n1 [Compound 271]
 | 28 | < 0.1 |  | 4.6 (≈ 8.19 µM) | Cc1ccc(OCc2ccc(C(=O)N3CCOCC3)c(C)c2)c(-c2csc(N3C[C@H]4CC[C@@H](C3)[C@H]4C(=O)O)n2)c1 [Compound 281]
 | 67 | 0.46 (≈ 0.777 µM) | > 54 | 36 (≈ 60.8 µM) | Cc1ccc(OCc2ccc(C(=O)N(C)CC(C)(C)CO)cc2C)c(-c2csc(N3C[C@H]4CC[C@@H](C3)[C@H]4C(=O)O)n2)c1 [Compound 346]
 | 13 | 0.3 (≈ 0.526 µM) |  | 58 (≈ 102 µM) | Cc1ccc(OCc2ccc(C(=O)N3CCCCC3)cc2C#N)c(-c2csc(N3C[C@H]4CC[C@@H](C3)[C@H]4C(=O)O)n2)c1 [Compound 263]
 | 44 | 53 (≈ 92.2 µM) |  | 60 (≈ 104 µM) | Cc1ccc(OCc2ccc(C(=O)N3CCN(C)CC3)cc2C)c(-c2csc(N3C[C@H]4CC[C@@H](C3)[C@H]4C(=O)O)n2)c1 [Compound 300]
 | 140 | < 0.1 |  | 13 (≈ 22.1 µM) | CC[C@]1(C(=O)O)[C@@H]2CC[C@H]1CN(c1nc(-c3cc(C)ccc3OCc3ccc(C(=O)N4CCCCC4)cc3C)cs1)C2 [Compound 250, 8-ethyl-3-(4-{5-methyl-2-[2-methyl-4-(piperidine-1-carbonyl)-benzyloxy]-phenyl}-thiazole-2-yl)-3-aza-bicyclo[3.2.1]octane-8(syn)-carboxylic acid]
 | 70 | 0.4 (≈ 0.692 µM) |  | 49 (≈ 84.8 µM) | CCOCCN(C)C(=O)c1ccc(COc2ccc(C)cc2-c2csc(N3C[C@H]4CC[C@@H](C3)[C@H]4C(=O)O)n2)c(C)c1 [Compound 335]
 | 44 | < 0.1 |  | 13 (≈ 21.4 µM) | Cc1ccc(OCc2ccc(CN3CCS(=O)(=O)CC3)cc2C#N)c(-c2csc(N3C[C@H]4CC[C@@H](C3)[C@H]4C(=O)O)n2)c1 [Compound 267]
 | 41 | 32 (≈ 53.4 µM) |  | 48 (≈ 80 µM) | Cc1ccc(OCc2ccc(C(=O)N(C)Cc3nccn3C)cc2C)c(-c2csc(N3C[C@H]4CC[C@@H](C3)[C@H]4C(=O)O)n2)c1 [Compound 339]
 | 8.4 | 0.17 (≈ 0.312 µM) |  | 36 (≈ 66 µM) | Cc1ccc(OCc2ccc(C(=O)N3CCCC3)cc2C)c(-c2csc(N3C[C@H]4CC[C@@H](C3)[C@H]4C(=O)O)n2)c1 [Compound 299]
 | 140 | 42 (≈ 70 µM) |  | 47 (≈ 78.4 µM) | Cc1ccc(OCc2ccc(C(=O)N(C)Cc3cncn3C)cc2C)c(-c2csc(N3C[C@H]4CC[C@@H](C3)[C@H]4C(=O)O)n2)c1 [Compound 331]
 | 100 | 11 (≈ 18.2 µM) |  | 32 (≈ 53.1 µM) | COCC1CN(Cc2ccc(COc3ccc(C)cc3-c3csc(N4C[C@H]5CC[C@@H](C4)[C@H]5C(=O)O)n3)c(C#N)c2)CCO1 (some centres unmarked) [Compound 212]
 | 310 | 97 (≈ 168 µM) | > 59 | 91 (≈ 158 µM) | Cc1ccc(OCc2ccc(C(=O)N3CCCCC3)cc2C)c(-c2nc(N3C[C@H]4CC[C@@H](C3)[C@H]4C(=O)O)sc2F)c1 [Compound 202, 3-[5-fluoro-4-[5-methyl-2-[[2-methyl-4-(piperidine-1-carbonyl)phenyl]methoxy]phenyl]thiazol-2-yl]-3-azabicyclo[3.2.1]octane-8(syn)-carboxylic acid]
 | 37 | 1 (≈ 1.7 µM) |  | 83 (≈ 141 µM) | Cc1ccc(OCc2ccc(C(=O)N3CCN(C)C(=O)C3)c(C)c2)c(-c2csc(N3C[C@H]4CC[C@@H](C3)[C@H]4C(=O)O)n2)c1 [Compound 286]
